# Ends that are not written are not given here.
# How the values were obtained:
# P. aeruginosa (CFS 1292) = experiment: microbe, parasite or virus in culture; assay type: cell-based, Pseudomonas aeruginosa
# [1] = test system: carbapenem-resistant P. aeruginosa clinical isolate CFS-1292; experiment: MIC by modified CLSI broth microdilution against P. aeruginosa CFS-1292 (CAA, CAA + human serum); assay type: cell-based, Pseudomonas aeruginosa; conditions: for MIC (μg/mL) against CFS-1292 in 100% CAA (1st run/2nd run): 1st run or single value
# Pseudomonas aeruginosa = experiment: microbe, parasite or virus in culture; assay type: cell-based; conditions: P. aeruginosa isolates (n per peptide in table)
# Enterobacter cloacae = experiment: microbe, parasite or virus in culture; assay type: cell-based; conditions: for MIC: Enterobacter cloacae ATCC 13047, CAA supplemented with human serum
# Protocol: (§1) Determination of Minimal Inhibitory Concentrations (MIC).
# (§2) Additional MIC testing was performed for several peptides against the ESKAPE pathogens Escherichia coli, Enterobacter cloacae, Klebsiella pneumoniae, and Acinetobacter baumannii, in CAA supplemented with human serum (Table D).
# Escherichia coli = experiment: microbe, parasite or virus in culture; assay type: cell-based; conditions: for MIC: Escherichia coli ATCC 25922, CAA supplemented with human serum
# Protocol: as §1, §2
# Klebsiella pneumoniae = assay type: cell-based; conditions: for MIC50 / MIC100 / MIC Range: K. pneumoniae isolates (n per peptide in table); for MIC: Klebsiella pneumoniae HM-44, CAA supplemented with human serum
# Protocol: as §1, §2
# Acinetobacter baumannii = experiment: microbe, parasite or virus in culture; assay type: cell-based; conditions: for MIC50 / MIC100 / MIC Range: A. baumannii isolates (n per peptide in table); for MIC: Acinetobacter baumannii ATCC BAA 747, CAA supplemented with human serum
# S. maltophilia = experiment: MIC against S. maltophilia isolates; assay type: cell-based, Stenotrophomonas maltophilia; conditions: S. maltophilia isolates (n per peptide in table)
# Protocol: as §1
# In addition to the results discussed above in Example 3, further testing was conducted on several Chp peptides. MIC values were determined against different species, including P. aeruginosa, K. pneumoniae, A. baumannii, E. cloacae, E. coli, and S. maltophilia, and the results are presented below in Tables 40-45, wherein n=number of isolates tested for each species and MIC is measured as μg/mL.
# [2] = test system: carbapenem-resistant bacterial strains; experiment: organism not typed; assay type: cell-based
# Source text: as §1
# [3] = Stability assessment in 100% CAA; assay type: in vitro ADME; parameters: unit not given beside the values
# Protocol: Stability was assessed after incubation in 100% human serum at 37° C. after 10 minutes, 1 hour, and 2 hours.
# Stability assessment was further conducted in 100% CAA and rabbit serum using the same methodology discussed above.
# M. smegmatis = experiment: 45 hr MIC against M. smegmatis (NTM), Mueller Hinton broth; assay type: cell-based, Mycobacterium smegmatis
# M. fortuitum = experiment: 45 hr MIC against M. fortuitum (NTM); assay type: cell-based, Mycobacterium fortuitum; conditions: M. fortuitum subsp. Fortuitum da Costa Cruz. ATCC 6841
# M. avium = experiment: 45 hr MIC against M. avium (NTM); assay type: cell-based, Mycobacterium avium; conditions: M. avium Chester ATCC 700898
# M. intracellulare = experiment: 45 hr MIC against M. intracellulare (NTM); assay type: cell-based, Mycobacterium intracellulare; conditions: M. intracellulare (Cuttino and McCabe) Runyon ATCC 13950
# [4] = test system: M. kansasii Hauduroy ATCC 12478; experiment: 45 hr MIC against M. kansasii (NTM), Mueller Hinton broth; assay type: cell-based, Mycobacterium kansasii
# [5] = test system: Mycobacterium tuberculosis strains; conditions: Mycobacterium tuberculosis (Zopf) Lehmann and Neumann ATCC 35817
# Protocol: MIC values for various Chp peptides were determined using the CLSI method for broth microdilution in 96-well microtiter format.
# Next, MIC values for various Chp peptides were determined using the CLSI method above for broth microdilution in 96-well microtiter format for two different Mycobacterium tuberculosis strains. The MIC was determined as explained above for the NTM strains.
# M. scrofulaceum = experiment: 45 hr MIC against M. scrofulaceum (NTM); assay type: cell-based, Mycobacterium scrofulaceum; conditions: M. scrofulaceum Prissick and Masson ATCC 19981
# [6] = E. cloacae isolates (n per peptide in table)
# [7] = E. coli isolates (n per peptide in table)
# [8] = carbapenem-resistant isolate PA19
# [9] = carbapenem-resistant isolate PA20
# [10] = carbapenem-resistant isolate PA21
# [11] = carbapenem-resistant isolate PA22
# [12] = carbapenem-resistant isolate PA23
# [13] = carbapenem-resistant isolate PA24
# [14] = carbapenem-resistant isolate WLC-452
compound,measurement,setting,value
NC[C@H]1O[C@H](O[C@H]2[C@H](O)[C@@H](O[C@H]3O[C@H](CO)[C@@H](O)[C@H](N)[C@H]3O)[C@H](N)C[C@@H]2N)[C@H](N)C[C@@H]1O [Tobra],Passage MIC Passage #1 (Untreated),"P. aeruginosa (CFS 1292); Passage #1, MIC of agent on untreated culture",0.125 µg/mL
same,Passage MIC Passage #1,"P. aeruginosa (CFS 1292); Passage #1, colonies from spot dilution, duplicates (1),(2)",0.5 µg/mL
same,Passage MIC Passage #2 (Untreated),"P. aeruginosa (CFS 1292); Passage #2, MIC of agent on untreated culture",0.125 µg/mL
same,Passage MIC Passage #2,"P. aeruginosa (CFS 1292); Passage #2, colonies from spot dilution, duplicates (1),(2)",0.5 µg/mL
same,Passage MIC Passage #3 (Untreated),"P. aeruginosa (CFS 1292); Passage #3, MIC of agent on untreated culture",0.125 µg/mL
same,Passage MIC Passage #3,"P. aeruginosa (CFS 1292); Passage #3, colonies from spot dilution, duplicates (1),(2)",0.5 µg/mL
same,Passage MIC Passage #4 (Untreated),"P. aeruginosa (CFS 1292); Passage #4, MIC of agent on untreated culture",0.125 µg/mL
same,Passage MIC Passage #4,"P. aeruginosa (CFS 1292); Passage #4, colonies from spot dilution, duplicates (1),(2)",0.5 µg/mL
same,Passage MIC Passage #5 (Untreated),"P. aeruginosa (CFS 1292); Passage #5, MIC of agent on untreated culture",0.125 µg/mL
same,Passage MIC Passage #5,"P. aeruginosa (CFS 1292); Passage #5, colonies from spot dilution, duplicates (1),(2)",1 µg/mL
MARRKKMKGKRDKRVFKQTANKTKAINISPKNMRGGTRL [Unp3],MIC (μg/mL) against CFS-1292 in 100% CAA (1st run/2nd run),[1],8 µg/mL
same,MIC50,Pseudomonas aeruginosa,>8 µg/mL
same,MIC100,Pseudomonas aeruginosa,>8 µg/mL
same,MIC50,Enterobacter cloacae; [6],>8 µg/mL
same,MIC100,Enterobacter cloacae; [6],>8 µg/mL
same,MIC Range,Enterobacter cloacae; [6],>8 µg/mL
same,MIC,Enterobacter cloacae,8 µg/mL
same,MIC50,Escherichia coli; [7],>8 µg/mL
same,MIC100,Escherichia coli; [7],>8 µg/mL
same,MIC,Escherichia coli,0.5 µg/mL
same,MIC50,Klebsiella pneumoniae,>8 µg/mL
same,MIC100,Klebsiella pneumoniae,>8 µg/mL
same,MIC Range,Klebsiella pneumoniae,>8 µg/mL
same,MIC,Klebsiella pneumoniae,4 µg/mL
same,MIC50,Acinetobacter baumannii,>8 µg/mL
same,MIC100,Acinetobacter baumannii,>8 µg/mL
same,MIC,Acinetobacter baumannii,2 µg/mL
same,MIC50,S. maltophilia,>8 µg/mL
same,MIC100,S. maltophilia,>8 µg/mL
same,MIC Range,S. maltophilia,>8 µg/mL
same,MIC,[2]; [8],8 µg/mL
same,MIC,[2]; [9],>8 µg/mL
same,MIC,[2]; [10],>8 µg/mL
same,MIC,[2]; [11],>8 µg/mL
same,MIC,[2]; [12],>8 µg/mL
same,MIC,[2]; [13],>8 µg/mL
same,MIC,[2]; [14],>8 µg/mL
same,MIC (100% CAA),[3],4
same,45 hr MIC,"M. smegmatis; M. smegmatis MC^2 155, Run #1",32 µg/mL
MKLTKSDIAYREALGLSTTDPLPAEIGMVTRRANRLKRPRKTARFR [Myo1],MIC (μg/mL) against CFS-1292 in 100% CAA (1st run/2nd run),[1],>64 µg/mL
same,45 hr MIC,"M. smegmatis; M. smegmatis MC^2 155, Run #1",>64 µg/mL
same,45 hr MIC,"M. smegmatis; M. smegmatis MC^2 155, Run #2",>64 µg/mL
same,45 hr MIC,M. fortuitum,>64 µg/mL
same,45 hr MIC,M. avium,8 µg/mL
same,45 hr MIC,M. intracellulare,>64 µg/mL
same,45 hr MIC,[4],>64 µg/mL
same,MIC,[5],32 µg/mL
MKPLKRKPVQKARSAAKFRRNVSTVKAANMAVKPMRGGWRF [Fen7875],MIC (μg/mL) against CFS-1292 in 100% CAA (1st run/2nd run),[1],2 µg/mL
same,MIC (μg/mL) against CFS-1292 in CAA + […] human serum,[1],2 µg/mL
same,MIC (100% CAA),[3],4
same,45 hr MIC,"M. smegmatis; M. smegmatis MC^2 155, Run #1",4 µg/mL
same,45 hr MIC,"M. smegmatis; M. smegmatis MC^2 155, Run #2",16 µg/mL
same,45 hr MIC,M. fortuitum,8 µg/mL
same,45 hr MIC,M. avium,2 µg/mL
same,45 hr MIC,M. scrofulaceum,16 µg/mL
same,45 hr MIC,M. intracellulare,8 µg/mL
same,45 hr MIC,[4],32 µg/mL
MLTVWSDTPTIKRRKDMYRKRMSRKKSKKVFAKTAMKVNKRNHVKPMRGGYRI [Gkh3],MIC (μg/mL) against CFS-1292 in 100% CAA (1st run/2nd run),[1],0.5 µg/mL
same,MIC (μg/mL) against CFS-1292 in CAA + […] human serum,[1],1 µg/mL
same,MIC50,Pseudomonas aeruginosa,8 µg/mL
same,MIC100,Pseudomonas aeruginosa,>8 µg/mL
same,MIC50,Enterobacter cloacae; [6],4 µg/mL
same,MIC100,Enterobacter cloacae; [6],4 µg/mL
same,MIC,Enterobacter cloacae,4 µg/mL
same,MIC50,Escherichia coli; [7],1 µg/mL
same,MIC100,Escherichia coli; [7],4 µg/mL
same,MIC Range,Escherichia coli; [7],0.5 to 8 µg/mL
same,MIC,Escherichia coli,2 µg/mL
same,MIC50,Klebsiella pneumoniae,>8 µg/mL
same,MIC100,Klebsiella pneumoniae,>8 µg/mL
same,MIC,Klebsiella pneumoniae,4 µg/mL
same,MIC50,Acinetobacter baumannii,0.5 µg/mL
same,MIC100,Acinetobacter baumannii,1 µg/mL
same,MIC Range,Acinetobacter baumannii,0.25 to 1 µg/mL
same,MIC,Acinetobacter baumannii,4 µg/mL
same,MIC50,S. maltophilia,8 µg/mL
same,MIC100,S. maltophilia,>8 µg/mL
same,MIC,[2]; [8],2 µg/mL
same,MIC,[2]; [9],>8 µg/mL
same,MIC,[2]; [10],>8 µg/mL
same,MIC,[2]; [11],>8 µg/mL
same,MIC,[2]; [12],8 µg/mL
same,MIC,[2]; [13],8 µg/mL
same,MIC,[2]; [14],2 µg/mL
same,MIC (100% CAA),[3],0.5
same,45 hr MIC,"M. smegmatis; M. smegmatis MC^2 155, Run #1",>128 µg/mL
MMKYRKKMSAKSSRKQFTKGAMKVKGKNFTKPMRGGIRL [Unp5],MIC (μg/mL) against CFS-1292 in 100% CAA (1st run/2nd run),[1],2 µg/mL
same,MIC (μg/mL) against CFS-1292 in CAA + […] human serum,[1],0.5 µg/mL
same,MIC50,Pseudomonas aeruginosa,>8 µg/mL
same,MIC100,Pseudomonas aeruginosa,>8 µg/mL
same,MIC,Enterobacter cloacae,4 µg/mL
same,MIC,Escherichia coli,1 µg/mL
same,MIC50,Klebsiella pneumoniae,>8 µg/mL
same,MIC100,Klebsiella pneumoniae,>8 µg/mL
same,MIC Range,Klebsiella pneumoniae,>8 µg/mL
same,MIC,Klebsiella pneumoniae,4 µg/mL
same,MIC50,Acinetobacter baumannii,4 µg/mL
same,MIC100,Acinetobacter baumannii,8 µg/mL
same,MIC Range,Acinetobacter baumannii,1 to 8 µg/mL
same,MIC,Acinetobacter baumannii,8 µg/mL
same,MIC50,S. maltophilia,>8 µg/mL
same,MIC100,S. maltophilia,>8 µg/mL
same,MIC Range,S. maltophilia,>8 µg/mL
same,MIC,[2]; [8],8 µg/mL
same,MIC,[2]; [9],>8 µg/mL
same,MIC,[2]; [10],>8 µg/mL
same,MIC,[2]; [11],>8 µg/mL
same,MIC,[2]; [12],>8 µg/mL
same,MIC,[2]; [13],>8 µg/mL
same,MIC,[2]; [14],>8 µg/mL
same,MIC (100% CAA),[3],2
same,45 hr MIC,"M. smegmatis; M. smegmatis MC^2 155, Run #1",8 µg/mL
MRKRMSKRVDKKVFRRTAASAKKINIDPKIYRGGIRL [Osp1],MIC (μg/mL) against CFS-1292 in 100% CAA (1st run/2nd run),[1],16 µg/mL
same,MIC50,Pseudomonas aeruginosa,>8 µg/mL
same,MIC100,Pseudomonas aeruginosa,>8 µg/mL
same,MIC Range,Pseudomonas aeruginosa,>8 µg/mL
same,MIC,Enterobacter cloacae,32 µg/mL
same,MIC,Escherichia coli,0.5 µg/mL
same,MIC50,Klebsiella pneumoniae,>8 µg/mL
same,MIC100,Klebsiella pneumoniae,>8 µg/mL
same,MIC Range,Klebsiella pneumoniae,>8 µg/mL
same,MIC,Klebsiella pneumoniae,0.125 µg/mL
same,MIC50,Acinetobacter baumannii,8 µg/mL
same,MIC100,Acinetobacter baumannii,8 µg/mL
same,MIC Range,Acinetobacter baumannii,2 to 8 µg/mL
same,MIC,Acinetobacter baumannii,32 µg/mL
same,MIC50,S. maltophilia,>8 µg/mL
same,MIC100,S. maltophilia,>8 µg/mL
same,MIC Range,S. maltophilia,>8 µg/mL
same,MIC,[2]; [8],>8 µg/mL
same,MIC,[2]; [9],>8 µg/mL
same,MIC,[2]; [10],>8 µg/mL
same,MIC,[2]; [11],>8 µg/mL
same,MIC,[2]; [12],>8 µg/mL
same,MIC,[2]; [13],>8 µg/mL
same,MIC,[2]; [14],8 µg/mL
same,MIC (100% CAA),[3],4
same,45 hr MIC,"M. smegmatis; M. smegmatis MC^2 155, Run #1",32 µg/mL

# — US20220401514A1, “ANTIMICROBIAL, BACTERIOPHAGE-DERIVED POLYPEPTIDES AND THEIR USE AGAINST GRAM-NEGATIVE AND ACID-FAST BACTERIA” (CONTRAFECT CORPORATION, priority 2019, published 2022)
